According to the supplement of paper PMC8617591:

Assays:
[1] = tested on: Mycobacterium tuberculosis Erdman (autoluminescent); assay: total FIC50 (Loewe) at 50% inhibition, three-drug combination (log2); higher = more antagonistic
Experimental: (§1)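 DiaMOND equipotent three-drug combination dose responses (10 doses, 1.5- or 2-fold spacing, centred on IC90) against autoluminescent M. tuberculosis Erdman in 8 in vitro models. Read-out is OD600, or luminescence for the intracellular and dormancy models, normalised to untreated wells. Hill-fit Einf, AUC25 and GRinf are potency metrics; FIC50 and FIC90 are total Loewe fractional inhibitory concentrations as log2 (negative = synergy).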

[2] = tested on: Mycobacterium tuberculosis Erdman (autoluminescent); assay: total FIC90 (Loewe) at 90% inhibition, three-drug combination (log2); higher = more antagonistic
Experimental: as §1

[3] = tested on: Mycobacterium tuberculosis Erdman (autoluminescent); assay: Einf, fitted maximum growth inhibition of three-drug combination (fraction); higher = stronger maximal inhibition
Experimental: as §1

[4] = tested on: Mycobacterium tuberculosis Erdman (autoluminescent); assay: AUC25, normalised area under dose response up to IC25 (three-drug combination) (fraction (0-1)); higher = more potent at low dose
Experimental: as §1

[5] = tested on: Mycobacterium tuberculosis Erdman (autoluminescent); assay: GRinf, maximum normalised growth rate inhibition (three-drug combination) (unitless (-1 to 1)); higher = less effect (negative = killing)
Experimental: as §1

CC[C@@H](CO)NCCN[C@@H](CC)CO [ethambutol] + COc1c(N2C[C@@H]3CCCN[C@@H]3C2)c(F)cc2c(=O)c(C(=O)O)cn(C3CC3)c12 [moxifloxacin] + NC(=O)c1cnccn1 [pyrazinamide]
Details | AUC25, [4] | Einf, [3] | GRinf, [5] | total FIC50, [1] | total FIC90, [2]
in vitro model: acidic pH 5.7, time point: constant (~7 days, model-specific) | 0.106 | 0.781 | -0.213 | 0.429 | –
in vitro model: acidic pH 5.7, time point: terminal (~4-5 doublings, model-specific) | 0.0713 | 0.959 | -0.294 | 0.98 | 0.0827
in vitro model: intracellular J774, time point: constant = terminal | – | 0.98 | -0.497 | – | -0.596

Details | AUC25, [4] | Einf, [3] | GRinf, [5] | total FIC50, [1] | total FIC90, [2]
in vitro model: butyrate, time point: constant (~7 days, model-specific) | 0.108 | 0.926 | 0.001 | 0.345 | –
in vitro model: butyrate, time point: terminal (~4-5 doublings, model-specific) | 0.0814 | 0.967 | -0.00667 | 0.477 | 0.431
in vitro model: cholesterol 0.05 mM, time point: constant (~7 days, model-specific) | 0.12 | 0.683 | -0.365 | – | –
in vitro model: cholesterol 0.05 mM, time point: terminal (~4-5 doublings, model-specific) | 0.135 | 0.8 | -0.21 | 0.703 | –
in vitro model: cholesterol-high 0.2 mM, time point: constant (~7 days, model-specific) | 0.0703 | 0.962 | -0.373 | 1.02 | –
in vitro model: cholesterol-high 0.2 mM, time point: terminal (~4-5 doublings, model-specific) | 0.0603 | 1 | -0.587 | 1.29 | 1.24
in vitro model: dormancy (butyrate + nitrate, low O2), time point: constant (~7 days, model-specific) | 0.0861 | 0.816 | 0.46 | -0.23 | –
in vitro model: dormancy (butyrate + nitrate, low O2), time point: terminal (~4-5 doublings, model-specific) | 0.0923 | 0.979 | -0.107 | 0.189 | -0.144
in vitro model: standard 7H9 glycerol, time point: constant = terminal | 0.0574 | 0.966 | -0.145 | – | –
in vitro model: valerate, time point: constant (~7 days, model-specific) | 0.0872 | 0.884 | -0.169 | 0.599 | –
in vitro model: valerate, time point: terminal (~4-5 doublings, model-specific) | 0.0506 | 0.945 | -0.037 | 0.696 | -0.119

CC[C@@H](CO)NCCN[C@@H](CC)CO [ethambutol] + COc1c(N2C[C@@H]3CCCN[C@@H]3C2)c(F)cc2c(=O)c(C(=O)O)cn(C3CC3)c12 [moxifloxacin] + O=[N+]([O-])c1cn2c(n1)OC[C@@H](OCc1ccc(OC(F)(F)F)cc1)C2 [pretomanid]
Details | AUC25, [4] | Einf, [3] | GRinf, [5] | total FIC50, [1] | total FIC90, [2]
in vitro model: acidic pH 5.7, time point: constant (~7 days, model-specific) | 0.124 | 0.718 | -0.388 | 0.434 | –
in vitro model: acidic pH 5.7, time point: terminal (~4-5 doublings, model-specific) | 0.0788 | 0.939 | -0.335 | 1.03 | 0.811
in vitro model: intracellular J774, time point: constant = terminal | – | 0.999 | -0.573 | – | -1.12

Details | AUC25, [4] | Einf, [3] | GRinf, [5] | total FIC50, [1] | total FIC90, [2]
in vitro model: butyrate, time point: constant (~7 days, model-specific) | 0.0791 | 0.94 | -0.0315 | 0.478 | –
in vitro model: butyrate, time point: terminal (~4-5 doublings, model-specific) | 0.0604 | 0.968 | -0.039 | 0.42 | 0.0737
in vitro model: cholesterol 0.05 mM, time point: constant (~7 days, model-specific) | 0.106 | 0.669 | -0.247 | 0.987 | –
in vitro model: cholesterol 0.05 mM, time point: terminal (~4-5 doublings, model-specific) | 0.116 | 0.927 | -0.457 | 0.0988 | 1.38
in vitro model: cholesterol-high 0.2 mM, time point: constant (~7 days, model-specific) | 0.0657 | 0.89 | -0.187 | 0.925 | –
in vitro model: cholesterol-high 0.2 mM, time point: terminal (~4-5 doublings, model-specific) | 0.0467 | 1 | -0.609 | 1.12 | 1.04
in vitro model: dormancy (butyrate + nitrate, low O2), time point: constant (~7 days, model-specific) | 0.116 | 0.835 | 0.349 | 0.37 | –
in vitro model: dormancy (butyrate + nitrate, low O2), time point: terminal (~4-5 doublings, model-specific) | 0.126 | 0.986 | -0.335 | -0.414 | 0.703
in vitro model: standard 7H9 glycerol, time point: constant = terminal | 0.0753 | 0.974 | -0.251 | 0.294 | 0.564
in vitro model: valerate, time point: constant (~7 days, model-specific) | 0.0943 | 0.862 | -0.00882 | -0.131 | –
in vitro model: valerate, time point: terminal (~4-5 doublings, model-specific) | 0.0516 | 0.929 | 0.0316 | 0.26 | -0.798

CC[C@@H](CO)NCCN[C@@H](CC)CO [ethambutol] + NC(=O)c1cnccn1 [pyrazinamide] + CO[C@H]1/C=C/O[C@@]2(C)Oc3c(C)c(O)c4c(O)c(c(/C=N/N5CCN(C6CCCC6)CC5)c(O)c4c3C2=O)NC(=O)/C(C)=C\C=C\[C@H](C)[C@H](O)[C@@H](C)[C@@H](O)[C@@H](C)[C@H](OC(C)=O)[C@@H]1C [rifapentine]
Details | AUC25, [4] | Einf, [3] | GRinf, [5] | total FIC50, [1] | total FIC90, [2]
in vitro model: acidic pH 5.7, time point: constant (~7 days, model-specific) | 0.0954 | 0.885 | -0.165 | -0.399 | –
in vitro model: acidic pH 5.7, time point: terminal (~4-5 doublings, model-specific) | 0.0652 | 0.98 | -0.191 | -0.0475 | –
in vitro model: intracellular J774, time point: constant = terminal | – | 0.977 | -0.419 | – | -1.88

Details | AUC25, [4] | Einf, [3] | GRinf, [5] | total FIC50, [1] | total FIC90, [2]
in vitro model: butyrate, time point: constant (~7 days, model-specific) | 0.0808 | 0.911 | 0.0172 | 0.221 | –
in vitro model: butyrate, time point: terminal (~4-5 doublings, model-specific) | 0.0667 | 0.958 | 0.025 | 0.309 | -0.154
in vitro model: cholesterol 0.05 mM, time point: constant (~7 days, model-specific) | 0.116 | 0.659 | -0.834 | – | –
in vitro model: cholesterol 0.05 mM, time point: terminal (~4-5 doublings, model-specific) | 0.11 | 0.886 | -0.315 | 1.58 | –
in vitro model: cholesterol-high 0.2 mM, time point: constant (~7 days, model-specific) | 0.0322 | 0.941 | -0.414 | 1.2 | –
in vitro model: cholesterol-high 0.2 mM, time point: terminal (~4-5 doublings, model-specific) | 0.0395 | 0.999 | -0.679 | 1.46 | 1.21
in vitro model: dormancy (butyrate + nitrate, low O2), time point: constant (~7 days, model-specific) | 0.0922 | 0.87 | 0.301 | -0.0129 | –
in vitro model: dormancy (butyrate + nitrate, low O2), time point: terminal (~4-5 doublings, model-specific) | 0.116 | 0.984 | -0.233 | 0.284 | 1.88
in vitro model: standard 7H9 glycerol, time point: constant = terminal | 0.0407 | 0.883 | 0.165 | 0.158 | –
in vitro model: valerate, time point: constant (~7 days, model-specific) | 0.0408 | 0.821 | 0.114 | 0.105 | –
in vitro model: valerate, time point: terminal (~4-5 doublings, model-specific) | 0.0268 | 0.909 | 0.11 | 0.338 | -0.692

CC[C@@H](CO)NCCN[C@@H](CC)CO [ethambutol] + NC(=O)c1cnccn1 [pyrazinamide] + CO[C@H]1/C=C/O[C@@]2(C)Oc3c(C)c(O)c4c(O)c(c(/C=N/N5CCN(C)CC5)c(O)c4c3C2=O)NC(=O)/C(C)=C\C=C\[C@H](C)[C@H](O)[C@@H](C)[C@@H](O)[C@@H](C)[C@H](OC(C)=O)[C@@H]1C [rifampicin]
Details | AUC25, [4] | Einf, [3] | GRinf, [5] | total FIC50, [1] | total FIC90, [2]
in vitro model: acidic pH 5.7, time point: constant (~7 days, model-specific) | 0.0703 | 0.91 | -0.349 | -0.177 | –
in vitro model: acidic pH 5.7, time point: terminal (~4-5 doublings, model-specific) | 0.0348 | 0.982 | -0.218 | 0.428 | -0.924
in vitro model: intracellular J774, time point: constant = terminal | – | 0.966 | -0.396 | – | -2.06

Details | AUC25, [4] | Einf, [3] | GRinf, [5] | total FIC50, [1] | total FIC90, [2]
in vitro model: butyrate, time point: constant (~7 days, model-specific) | 0.0895 | 0.919 | 0.0103 | 0.151 | –
in vitro model: butyrate, time point: terminal (~4-5 doublings, model-specific) | 0.0793 | 0.964 | 0.024 | 0.114 | -0.38
in vitro model: cholesterol 0.05 mM, time point: constant (~7 days, model-specific) | 0.089 | 0.596 | 0.0152 | – | –
in vitro model: cholesterol 0.05 mM, time point: terminal (~4-5 doublings, model-specific) | 0.105 | 0.954 | -0.297 | 1.25 | –
in vitro model: cholesterol-high 0.2 mM, time point: constant (~7 days, model-specific) | 0.0452 | 0.964 | -0.34 | 1.12 | –
in vitro model: cholesterol-high 0.2 mM, time point: terminal (~4-5 doublings, model-specific) | 0.043 | 0.995 | -0.69 | 1.15 | 0.828
in vitro model: dormancy (butyrate + nitrate, low O2), time point: constant (~7 days, model-specific) | 0.134 | 0.906 | 0.291 | -1.12 | –
in vitro model: dormancy (butyrate + nitrate, low O2), time point: terminal (~4-5 doublings, model-specific) | 0.0829 | 0.989 | -0.155 | -0.532 | 0.414
in vitro model: standard 7H9 glycerol, time point: constant = terminal | 0.0436 | 0.897 | 0.134 | 0.0958 | –
in vitro model: valerate, time point: constant (~7 days, model-specific) | 0.0382 | 0.854 | 0.143 | 0.23 | –
in vitro model: valerate, time point: terminal (~4-5 doublings, model-specific) | 0.0278 | 0.92 | 0.0943 | 0.205 | -0.873
